No end group written: not given here.

Assay [1] relates to mouse osteoblast-like cell line MC3T3-E1 Subclone-4. Kind of assay: Osteoblast growth-promoting activity (cell counting method). It is filed as cell-based. To be noted: synthetic peptides at 2.5, 5 or 10 μg/mL; 72 hours; relative to PBS (−) group taken as 100; FIGS. 9 to 12. How it is done:
A mouse osteoblast-like cell line MC3T3-E1 Subclone-4 (ATCC No. CRL-2593) was cultured in α-MEM medium supplemented with 10% FBS at 5% CO2 and 95% air at 37° C. until confluent. The cells were collected by trypsinization. The collected cells were suspended at 1×10^4 cells/mL in fresh α-MEM medium. One mL of the cell suspension was seeded in each well of a 24-well plate, and precultured at 5% CO2 and 95% air at 37° C. On the next day, the medium was replaced with medium prepared by well mixing 50 μL of a sample or PBS (−) with 950 μL of fresh α-MEM medium supplemented with CaCl2 to a Ca concentration of 500 μg/mL. The cells were further cultured for 72 hours. The growth activity of osteoblasts was measured by the cell counting method. The activity of the sample for promoting the growth of osteoblasts was expressed in terms of the relative value, with the growth rate in the PBS (−) group taken as 100. Osteoblast growth-promoting activity was determined for the synthetic peptides in the same manner as in Example 1. The synthetic peptides were added at 2.5, 5 or 10 μg/mL per well. As a control, PBS (−) was added. The osteoblast growth-promoting activity was expressed in terms of the relative value, with the growth rate in the PBS (−) group taken as 100.

Assay [2] concerns Crlj:W1 male rats at four weeks old. Kind of assay: Mineral apposition rate in secondary cancellous bone, 7-day oral administration. It is filed as in vivo, rat. To be noted: seven days. Here is the method: One of the synthetic peptides (No. 1) or water for injection (control) was administered to Crlj:W1 male rats at four weeks old by oral gavage using a gastric tube once a day for seven days (n=10 in each group). The dose of the synthetic peptide was 1, 10 or 100 mg/kg-day. As a positive control, human growth hormone (hGH) (Norditropin, Standard Commodity Classification No. of Japan: 872412) was subcutaneously administered at 500 μg/kg·day once a day for seven days. As fluorescent labels for the site of bone formation, tetracycline (20 mg/kg) was subcutaneously administered on day 4 after the administration of the peptide or control, and then calcein (10 mg/kg) was subcutaneously administered on day 6 after the administration of the peptide or control. After the administration of the test sample on day 7, the rats were kept under fasting conditions. Twenty-four hours later, the rats were euthanized by bloodletting under anesthesia, and the tibiae were harvested. Non-decalcified specimens of the proximal tibiae were prepared and photographed under a fluorescent microscope (BX-53, OLYMPUS). The bone morphology was measured using a morphometry system (Histometry RT digitizer, System Supply Co., Ltd.) and an analysis software (CSS-840 cancellous bone morphometry version, System Supply Co., Ltd.). The mineral apposition rate (MAR), per day, in the secondary cancellous bone was determined by measuring the distance between the tetracycline label and the calcein label in the secondary cancellous bone, and dividing the distance by the administration interval between the fluorescent labels (two days). […] The increase in the mineral apposition rate in the secondary cancellous bone in the No. 1 administration group would have resulted from the increase in the number of osteoblasts.

The test system is the same in assay [3]. Kind of assay: Bone formation in growth cartilage and primary cancellous bone, 7-day oral administration. Format: in vivo, rat. To be noted: seven days. Here is the method:
One of the synthetic peptides (No. 1) or water for injection (control) was administered to Crlj:W1 male rats at four weeks old by oral gavage using a gastric tube once a day for seven days (n=3 in each group). The dose of the synthetic peptide (No. 1) was 100 mg/kg-day. As a positive control, human growth hormone (hGH) (Norditropin, Standard Commodity Classification No. of Japan: 872412) was subcutaneously administered at 500 μg/kg-day once a day for seven days. As fluorescent labels for the site of bone formation, tetracycline (20 mg/kg) was subcutaneously administered on day 4 after the administration of the peptide or control, and then calcein (10 mg/kg) was subcutaneously administered on day 6 after the administration of the peptide or control. After the administration of the test sample on day 7, the rats were kept under fasting conditions. Twenty-four hours later, the blood was collected. The rats were then euthanized by bloodletting under anesthesia, and the tibiae were harvested (see FIG. 16). Non-decalcified specimens of the proximal tibiae were prepared and photographed under a fluorescent microscope (BX-53, OLYMPUS). The bone morphology was measured using a morphometry system (Histometry RT digitizer, System Supply Co., Ltd.) and an analysis software (CSS-840 cancellous bone morphometry version, System Supply Co., Ltd.). The longitudinal growth rate (Lo.G.R.) in the growth cartilage, which is the increase in the height per day, was determined by measuring the distance between the tetracycline label and the calcein label, and dividing the distance by the administration interval between the fluorescent labels (two days).
The increase in the level of IGF-1, which is related to growth of the bones and muscles in a growth phase, may contribute to the bone growth-promoting effect.

Assay [4] concerns Sprague-Dawley male rats fed with a low-calcium diet. Kind of assay: Bone density recovery test after low-calcium diet (DXA, pQCT). Format: in vivo, rat. The following applies: oral 1, 10 or 100 mg/kg·day for seven days after one week low-calcium diet; vs control. Here is the method: Sprague-Dawley male rats at three weeks old were initially fed with a low-calcium diet (containing 0.05% calcium carbonate) for one week, and then fed with a normal diet (containing 1.2% calcium carbonate). The synthetic peptide (No. 1) or physiological saline (control) was administered to the rats by oral gavage using a gastric tube once a day for seven days. The dose of the synthetic peptide was 1, 10 or 100 mg/kg·day. After the oral administration on day 7, the rats were euthanized by bloodletting under anesthesia, and the femurs and tibiae were harvested. The bone volume and bone morphology of the tibiae and femurs were measured by dual energy x-ray absorptiometry (DXA) and peripheral quantitative computed tomography (pQCT).

Assay [5] concerns mature female rats (eight months old). Kind of assay: Bone formation-promoting effect in mature rats. Format: in vivo, rat. To be noted: 20 weeks. How it is done:
Synthetic peptide No. 1 was administered to mature female rats (eight months old, ten rats in each group) by oral gavage using a gastric tube once a day for 20 weeks. The dose of the synthetic peptide was 1, 10 or 100 mg/kg·day.

Setting [6] is: No. 1 oral 1, 10 or 100 mg/kg·day, alendronate 300 μg/kg subcutaneous, vs control group.

In the case of VNPESEEE [No. 1], the osteoblast growth-promoting activity result in assay [1] is “promoted the growth of osteoblasts in a concentration-dependent manner”. Besides, the “mineral apposition rate (MAR) in the secondary cancellous bone, vs control group” value in assay [2] (No. 1 oral 1, 10 or 100 mg/kg-day, hGH 500 μg/kg·day subcutaneous, FIG. 26) is given as “significant increase in the mineral apposition rate”. The “osteoblast surface/bone surface (Ob.S/BS)” value in assay [2] (oral 1, 10 or 100 mg/kg-day, FIG. 27) is given as “high percentage”. For the same sequence, in assay [2] (oral 1, 10 or 100 mg/kg-day, FIG. 28), the “number of osteoblasts/tissue volume (N.Ob/TV)” value was “high number of osteoblasts”. Further, the “bone formation rate/bone surface (BFR/BS)” value in assay [2] (oral 1, 10 or 100 mg/kg-day, FIG. 29) is given as “high rates”. In addition, the “bone formation rate/bone surface (BFR/BS), vs control group” value in assay [2] (oral dose of 10 mg/kg-day or more) is on record as “significant increase in the bone formation rate”. Moreover, the “mineral apposition rate (MAR) in the secondary cancellous bone, vs hGH administration group” value in assay [2] (oral dose of 10 mg/kg·day or more, FIG. 26) was “significant increase in the mineral apposition rate at a dose of 10 mg/kg·day or more as compared with the hGH administration group”. Also, the “serum level of insulin-like growth factor (IGF-1)” value in assay [3] (No. 1 oral 100 mg/kg-day, hGH 500 μg/kg-day subcutaneous, ELISA, FIG. 19) is recorded as “higher than that in the control group”. The “longitudinal growth rate (Lo.G.R.) in the growth cartilage, vs control group” value in assay [3] (No. 1 oral 100 mg/kg-day, hGH 500 μg/kg-day subcutaneous, FIG. 17) is given as “significant promotion of bone growth as compared with the control group”. For the same sequence, the “longitudinal growth rate (Lo.G.R.) in the growth cartilage, vs hGH administration group” value in assay [3] (oral 100 mg/kg-day, FIG. 17) is “significant as compared with the hGH administration group”. Moreover, the “incorporation of the fluorescent labels into the primary cancellous bone” value in assay [3] (oral 100 mg/kg-day, vs control group and hGH group, FIG. 18) is on record as “high frequency of incorporation of the fluorescent labels into the primary cancellous bone”. For the same sequence, in assay [4], the “bone density of the tibiae” value is recorded as “tended to be higher in the synthetic peptide administration group than in the control group”, the “length of the tibiae” value is on record as “tended to be higher in the synthetic peptide administration group than in the control group” and the “weight of the tibiae” value is “tended to be higher in the synthetic peptide administration group than in the control group”. Further, in assay [5], the “levels of the increases (femur bone density, cancellous bone volume) compared with alendronate” value was “comparable to those in the alendronate administration group”. In addition, in assay [5] (setting [6]), the “bone density in the femurs” value was “significantly increased” and the “cancellous bone volume in the proximal tibial metaphysis” value is reported as “significantly increased”.
